{"source": "patent US4490291A", "about": "“Nonapeptide amides” (Takeda Chemical Industries, Ltd., priority 1973, dated 1984)", "tested_on": "Sprague-Dawley rats (4-day cycling female)", "assay": "Ovulation-inducing activity in rats, ED50 compared with LH-RH", "format": "in vivo", "settings": "for Relative ovulation-inducing activity (ED50 compared with that of LH-RH itself): subcutaneous injection at 14:30 on the day of diestrous, ovulated ova in oviduct examined next morning, natural LH-RH control = 100%", "procedure": "Ovulation-inducing activity is determined in Sprague-Dawley rats (4-day cycling female) in which the injection of the compound was made subcutaneously at 14:30 on the day of diestrous, and the ovulated ova in the ampilla of the oviduct were examined on the morning of the next day. The results (ED50) were compared with that (ED50) of LH-RH itself. The assay results on the object compounds are as follows.", "note": "Non-standard residues stand in square brackets, D forms with d. Residues, ends and D or L forms follow the SMILES beside them. pGlu = O=C1CC[C@@H](C(=O)O)N1"}
{"molecule": "CCNC(=O)[C@@H]1CCCN1C(=O)[C@H](CCCNC(=N)N)NC(=O)[C@@H](NC(=O)[C@@H](C)NC(=O)[C@H](Cc1ccccc1)NC(=O)[C@H](CO)NC(=O)[C@H](Cc1c[nH]c2ccccc12)NC(=O)[C@H](Cc1c[nH]cn1)NC(=O)[C@@H]1CCC(=O)N1)[C@@H](C)CC", "note": "[His Phe Ile ethyl, (Pyr)Glu--His--Trp--Ser--Phe--(D)--Ala--Ile--Arg--Pro--NHCH2 CH3] ([pGlu]HWSF[dA]IRP-NHEt)", "values": [{"measurement": "Relative ovulation-inducing activity (ED50 compared with that of LH-RH itself)", "value": "3,200%"}]}
{"molecule": "CCNC(=O)[C@@H]1CCCN1C(=O)[C@H](CCCNC(=N)N)NC(=O)[C@H](CC(C)C)NC(=O)[C@@H](C)NC(=O)[C@H](Cc1ccccc1)NC(=O)[C@H](CO)NC(=O)[C@H](Cc1c[nH]c2ccccc12)NC(=O)[C@H](Cc1c[nH]cn1)NC(=O)[C@@H]1CCC(=O)N1", "note": "[His Phe Leu ethyl, (Pyr)Glu--His--Trp--Ser--Phe--(D)--Ala--Leu--Arg--Pro--NH--CH2 --CH3] ([pGlu]HWSF[dA]LRP-NHEt)", "values": [{"measurement": "ED50 value of ovulation inducing activity", "setting": "product of process (III) compared with product of process (I) of Example 5(c)", "value": "identical"}, {"measurement": "Relative ovulation-inducing activity (ED50 compared with that of LH-RH itself)", "value": "5,810%"}]}
{"molecule": "CCNC(=O)[C@@H]1CCCN1C(=O)[C@H](CCCNC(=N)N)NC(=O)[C@H](CC(C)C)NC(=O)[C@@H](C)NC(=O)[C@H](Cc1ccc(O)cc1)NC(=O)[C@H](CO)NC(=O)[C@H](Cc1c[nH]c2ccccc12)NC(=O)[C@H](Cc1c[nH]cn1)NC(=O)[C@@H]1CCC(=O)N1", "note": "[His Tyr Leu ethyl, (Pyr)Glu--His--Trp--Ser--Tyr--(D)--Ala--Leu--Arg--Pro--NH--CH2 --CH3]", "values": [{"measurement": "Relative ovulation-inducing activity (ED50 compared with that of LH-RH itself)", "value": "6,100%"}]}
{"molecule": "CCCC[C@H](NC(=O)[C@@H](C)NC(=O)[C@H](Cc1ccc(O)cc1)NC(=O)[C@H](CO)NC(=O)[C@H](Cc1c[nH]c2ccccc12)NC(=O)[C@H](Cc1c[nH]cn1)NC(=O)[C@@H]1CCC(=O)N1)C(=O)N[C@@H](CCCNC(=N)N)C(=O)N1CCC[C@H]1C(=O)NCC", "note": "[His Tyr Nle ethyl, (Pyr)Glu--His--Trp--Ser--Tyr--(D)--Ala--Nle--Arg--Pro--NHCH2 CH3]", "values": [{"measurement": "Relative ovulation-inducing activity (ED50 compared with that of LH-RH itself)", "value": "4,800%"}]}
{"molecule": "CCNC(=O)[C@@H]1CCCN1C(=O)[C@H](CCCNC(=N)N)NC(=O)[C@H](CC(C)C)NC(=O)[C@@H](C)NC(=O)[C@H](Cc1ccc(O)cc1)NC(=O)[C@H](CO)NC(=O)[C@H](Cc1c[nH]c2ccccc12)NC(=O)[C@H](Cc1ccc(O)cc1)NC(=O)[C@@H]1CCC(=O)N1", "note": "[Tyr Tyr Leu ethyl, (Pyr)Glu--Tyr--Trp--Ser--Tyr--(D)--Ala--Leu--Arg--Pro--NHCH2 CH3] ([pGlu]YWSY[dA]LRP-NHEt)", "values": [{"measurement": "Relative ovulation-inducing activity (ED50 compared with that of LH-RH itself)", "value": "2,010%"}]}
{"molecule": "CC(C)C[C@H](NC(=O)CNC(=O)[C@H](Cc1ccc(O)cc1)NC(=O)[C@H](CO)NC(=O)[C@H](Cc1c[nH]c2ccccc12)NC(=O)[C@H](Cc1c[nH]cn1)NC(=O)[C@@H]1CCC(=O)N1)C(=O)N[C@@H](CCCNC(=N)N)C(=O)N1CCC[C@H]1C(=O)NCC(N)=O", "note": "[natural LH--RH, (Pyr)Glu-His-Trp-Ser-Tyr-Gly-Leu-Arg-Pro-Gly-NH2, reference compound]", "values": [{"measurement": "Relative ovulation-inducing activity (ED50 compared with that of LH-RH itself)", "value": 100, "unit": "%"}]}
{"molecule": "(Pyr)Glu--p--NH2 --Phe--Trp--Ser--Tyr--(D)--Ala--Leu--Arg--Pro--NH--CH2 --CH3 [p-NH2 --Phe Tyr Leu ethyl]", "values": [{"measurement": "Relative ovulation-inducing activity (ED50 compared with that of LH-RH itself)", "value": "2,150%"}]}
